Experimental data as given in US9512139B2, “Conformationally constrained, fully synthetic macrocyclic compounds” (POLYPHOR AG, priority 2009, dated 2016).

Legend:
[1] = Metabolic stability assay, human microsomes; assay type: in vitro ADME; conditions: human, microsomes; for half-life at 10 µM: both sexes; for Metabolic Stability 60 min hum [% remain.]: 1 h
Experimental: (§1) 4. Plasma and Metabolic Stability Assays
(§2) The assays were conducted according to literature precedents (F. P. Guengerich, Analysis and Characterization of Enzymes; in: Principles and Methods of Toxicology; A. W. Hayes (Ed.) Raven Press: New York, 1989, 777-813; R. Singh et al., In vitro metabolism of a potent HIV-protease inhibitor (141W94) using rat, monkey and human liver S9, Rapid Commun. Mass Spectrom. 1996, 10, 1019-1026).
(§3) Metabolic Stability Assay
(§4) Microsomes from a human 50 donor mixed gender pool and 1:1 mixtures of microsomes from CD-1 mouse single-gender pools are purchased from Celsis (Belgium). The enzymatic reaction is performed in a buffer containing an NADPH regeneration system and microsomes with the following end concentrations: 100 mM potassium phosphate buffer (all from Sigma), 1 mg/mL glucose-6-phosphate, 1 mg/mL β-nicotinamide adenine dinucleotide phosphate (NADP), 0.65 mg/mL magnesium chloride, 0.8 units/mL of glucose-6-phosphate dehydrogenase (prediluted with 5 mM citrate buffer), 10 μM compound and 1 mg/ml microsomal protein. Compounds are incubated at 37° C. in duplicates and samples are taken after 0, 20 and 60 minutes. After acetonitrile precipitation (2 volumes) and HPLC/MS/MS analysis metabolic turnover is expressed in % of the initial 0 minutes value and half life T½ (min) is calculated. Verapamil for human and propranolol for mouse are used as reference and are assayed with every experimental set.

[2] = Metabolic stability assay, CD-1 mouse microsomes; assay type: in vitro ADME; conditions: microsomes; for half-life at 10 µM: both sexes; for Metabolic Stability 60 min mouse [% remain.]: 1 h
Experimental: as §1, §2, §3, §4

in vitro [3] = assay type: in vitro ADME, mouse; conditions: plasma; for Plasma Stability 240 min mouse [% remain.]: 4 h
Experimental: Example compounds were dissolved in DMSO/H2O 90:10 to a final concentration of 10 mM for plasma stability determination and metabolic stability determination.
Human plasma (3-5 donors, Blutspendedienst SRK, Basel) and CD-1 mouse plasma (mixed gender pool >50 animals, Innovative Research, CA, USA) are both sodium citrate stabilized. The assay is performed in triplicates at 10 μM compound concentration and 37° C. Samples are taken at 0, 15, 60, and 240 minutes and stopped by precipitation with 2 volumes of acetonitrile. The supernatant is collected, evaporated and reconstituted in a 5% acetonitrile solution to be analyzed by HPLC/MS/MS. The resulting peak area counts are expressed in percent of the 0 value and used to determine the endpoint stability in % and the half life in minutes. In order to monitor assay integrity the degradation of propantheline is assayed with every experimental set.

in vitro [4] = assay type: in vitro ADME, human; conditions: human, plasma; for Plasma Stability 240 min hum [% remain.]: 4 h
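Throughout, for Plasma Stability 240 min mouse [% remain.]: sodium citrate stabilized mouse plasma, parent compound quantified by HPLC/MS/MS relative to its peak area at time zero, run in triplicate.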
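Throughout, for Plasma Stability T½ [min] mouse: sodium citrate stabilized mouse plasma, parent compound quantified by HPLC/MS/MS relative to its peak area at time zero, run in triplicate.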

Compound | half-life at 10 µM [1] | Metabolic Stability 60 min hum [% remain.] ([1]; both, 10 µM) | half-life at 10 µM ([2]; CD-1, mouse) | Metabolic Stability 60 min mouse [% remain.] ([2]; both, CD-1, mouse, 10 µM) | Plasma Stability 240 min mouse [% remain.] (in vitro [3]; both, CD-1, mouse, 10 µM) | Plasma Stability 240 min hum [% remain.] (in vitro [4]; 10 µM) | Plasma Stability T½ [min] mouse (in vitro [3]; both, CD-1, mouse, 10 µM) | Plasma Stability T½ [min] hum (in vitro [4]; 10 µM) | Metabolic Stability T½ [min] mouse ([2]; both, CD-1, mouse, 10 µM) | Metabolic Stability T½ [min] hum [1] | Metabolic Stability 60 min hum [% remain.] [1] | Metabolic Stability T½ [min] mouse ([2]; mouse) | Metabolic Stability 60 min mouse [% remain.] ([2]; mouse) | Plasma Stability T½ [min] mouse (in vitro [3]; mouse) | Plasma Stability 240 min mouse [% remain.] (in vitro [3]; mouse) | Plasma Stability T½ [min] hum (in vitro [4]) | Plasma Stability 240 min hum [% remain.] (in vitro [4])
CCCCC(=O)N[C@H]1C[C@H]2COc3ccc(F)cc3C(=O)N(C)[C@@H](C(=O)NCc3ccc4ccccc4c3)CCC(=O)N(C)CC(=O)N2C1 [Ex. 103, (2S,11R,19aS)-15-fluoro-7,12-dimethyl-N-(2-naphthylmethyl)-5,8,13-trioxo-2-(pentanoylamino)-2,3,6,7,8,9, 10,11,12,13,19,19a-dodecahydro-1H,5H-pyrrolo[2,1-c][1,4,7,12] benzoxatriazacyclopentadecine-11-carboxamide] | 35 min | 22 % remain. | 36 min | 25 % remain. | 75 % remain. | 97 % remain. | – | – | – | – | – | – | – | – | – | – | –
CCN(CC)[C@@H]1C[C@H]2COc3ccc(cc3)C(=O)N(C)[C@H](C(=O)NCc3ccc4ccccc4c3)CCC(=O)N(C)CC(=O)N2C1 [Ex. 262, (4S,6R,15S)-6-(diethylamino)-11,16-dimethyl-N-(2-naphthylmethyl)-9,12,17-trioxo-2-oxa-8,11,16-triazatricyclo[16.2.2.0^4,8]docosa-1(20),18,21-triene-15-carboxamide] | 21 min | 0 % remain. | 23 min | 4 % remain. | 93 % remain. | 100 % remain. | > 240 min | > 240 min | – | – | – | – | – | – | – | – | –
CN1CC(=O)N2C[C@H](NC(=O)CCc3ccncc3)C[C@H]2COc2ccc(cc2)C(=O)N(C)[C@H](C(=O)NCc2ccc3ccccc3c2)CCC1=O [Ex. 260, (4S,6R,15S)-11,16-dimethyl-N-(2-naphthylmethyl)-9,12,17-trioxo-6-{[3-(4-pyridinyl)propanoyl]amino}-2-oxa-8,11,16-triazatricyclo[16.2.2.0^4,8]docosa-1(20),18,21-triene-15-carboxamide] | 37 min | 19 % remain. | – | 69 % remain. | 100 % remain. | 100 % remain. | > 240 min | > 240 min | > 60 min | – | – | – | – | – | – | – | –
CN1CC(=O)N2C[C@@H](NC(=O)CCC(=O)O)C[C@H]2COc2ccc(F)cc2C(=O)N(C)[C@@H](C(=O)NCc2ccc3ccccc3c2)CCC1=O [Ex. 95] | – | – | – | – | – | – | – | – | – | > 60 min | 76 % remain. | > 60 min | 94 % remain. | > 240 min | 93 % remain. | > 240 min | 100 % remain.
CN1CCC[C@H](N)C(=O)N2C[C@@H](OCc3ccc(-c4cccnc4)cc3)C[C@H]2COc2cccc(c2)C1=O [Ex. 578, (4S,6S,10S)-10-amino-14-methyl-6-{[4-(3-pyridinyl)benzyl]oxy}-2-oxa-8,14-diazatricyclo[14.3.1.0^4,8]icosa-1(20),16,18-triene-9,15-dione] | 52 min | 46 % remain. | – | 55 % remain. | 86 % remain. | 100 % remain. | > 240 min | > 240 min | > 60 min | – | – | – | – | – | – | – | –
